In brackets after ≈: the same amount, converted by molar mass. Several values for one entry are separate records, joined by “and”; a condition that tells them apart may be missing. Identical values can stand only once. Like-named read-outs stand apart in the source and are kept apart here. Residues, ends and D or L forms follow the SMILES beside them.
What was measured:
A. baumannii AB5075 = assay: In vitro passaging, emergence of resistance; type: cell-based, Acinetobacter baumannii
Experimental: Log-phase cultures (OD600 = 0.5, ~10^8 CFU/mL) of A. baumannii AB5075 were inoculated (1:10, v/v) in 200 μL fresh CaMHB (cation-adjusted Mueller–Hinton broth) containing 2, 8 and 16 μg/mL polymyxin B, colistin, F287, and F365 in a 96-well microplate with 4 biological replicates. The cultures were incubated at 37 °C for 12 h before the next dilution (1:10, v/v) with fresh CaMHB. Successive subculturing was conducted for 7 days.

[1] = tested on: MDR clinical isolates of P. aeruginosa (n = 213, 55 carbapenem-resistant); type: cell-based, Pseudomonas aeruginosa
Outline: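 MICs came from broth microdilution in cation-adjusted Mueller–Hinton broth against clinical isolates. For surfactant binding, P. aeruginosa ATCC 27853 was additionally tested with 10% Survanta® (v/v, 2.5 mg/mL phospholipids) added to the polymyxin-containing broth.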

P. aeruginosa ATCC 27853 = type: cell-based, Pseudomonas aeruginosa
Outline: (§1)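 Broth microdilution, CaMHB; MIC read as the antibacterial endpoint against ATCC reference strains and clinical isolates.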

[2] = tested on: P. aeruginosa FADDI-PA025; type: cell-based, Pseudomonas aeruginosa; conditions: FADDI-PA025
Outline: as §1

[3] = tested on: P. aeruginosa FADDI-PA038; type: cell-based, Pseudomonas aeruginosa; conditions: carbapenem-resistant isolate
Outline: as §1

HK-2 cells = assay: Transcriptomic analysis (RNA-Seq) of kidney cells; type: cell-based, human; conditions: for logFC, differential gene expression for all genes / log2FC: HK-2 RNA-Seq; for log2FC: Fig. 5f
Experimental: Human Kidney-2 (HK-2) cells (CRL-2190™, American Type Culture Collection) were treated with 100 μM colistin, F287, F319, and F365 for 24 h. Previous transcriptomic data of HK-2 cells following 24 h treatment with polymyxin B[26] were also employed for comparative bioinformatic analysis. RNA extraction was conducted as described above. Raw reads were aligned to genome GRCh38.94 (Ensembl genome database, http://ftp.ensembl.org/pub/release-94/fasta/homo_sapiens/dna/) using […] and summarized by featureCounts. Differentially expressed genes were determined using limma 3.46.0, with a combination of fold change ≥ 1.5 and FDR (by Benjamini–Hochberg algorithm) adjusted P-value ≤ 0.05 (n = 3). Key regulatory genes of HK-2 were analyzed in the context of signaling network in the Signor 2.0 database. Enrichment analysis of gene differential expression in HK-2 cells was conducted using enrichR 2.1. UpSetR 1.4.0, ComplexHeatmap 2.6.2, circlize 0.4.13 and iGraph 1.2.11 were used for data visualization. Raw data were deposited in the Short Reads Archive database under accession numbers SRR15239061-SRR15239078.

in vitro = type: cell-based, human; conditions: human, wild-type HK-2 cells (kidney proximal tubular), Cell viability, WT
Experimental: (§2) Fig. 6 Transcriptomic changes in human kidney proximal tubular HK-2 cells following treatments with polymyxin B (PMB), colistin (COL), F287, F319, and F365. a Numbers of differentially expressed genes. Distinctive intersections are color-coded. b Cell viability difference (two-tailed Student’s t-test, n = 4 biologically independent cells, Benjamini–Hochberg adjusted P-values) between wild-type HK-2 and KCNJ16 knockout (KO) cells following 24 h treatment with lipopeptides. n.s., not significant; ^*adjusted P < 0.05, ^**adjusted P < 0.01, ^***adjusted P < 0.001. Data are shown as mean ± s.d. and individual data points. c Extracted transcriptional regulatory network from Signor database with 1-step neighbor constraints (enlarged for detail). Source data are provided as a Source Data file.

wild-type HK-2 cells = assay: in vitro; type: cell-based, human
Experimental: as §2

[4] = Cell viability after 24 h treatment; type: cell-based, human; conditions: human, KCNJ16 knockout HK-2 cells (kidney proximal tubular), Cell viability, KCNJ16 KO, KCNJ16 knockout HK-2 cells, 24 h, Fig. 6b
Experimental: as §2

[5] = tested on: KCNJ16 knockout HK-2 cells; assay: Cell viability after 24 h treatment; type: cell-based, human; conditions: 24 h treatment
Experimental: as §2

[6] = MDR clinical isolates of (n = 213, 55 carbapenem-resistant)

## CC[C@@H]1NC(=O)[C@@H](CC(C)C)NC(=O)[C@H](CCN)NC(=O)[C@@H](NC(=O)[C@H](CN)NC(=O)[C@@H](NC(=O)[C@H](CCN)NC(=O)c2ccc(Cl)cc2Cl)[C@@H](C)O)CCNC(=O)[C@H]([C@@H](C)O)NC(=O)[C@H](CCN)NC(=O)[C@H](CCN)NC1=O [Lipopeptide F365] (HELM PEPTIDE1{[O=C(c1ccc(Cl)cc1Cl)[*:2]].[Dab].T.[NC[C@H](N[*:1])C(=O)[*:2]].[Dab].[Dab].[dL].[Abu].[Dab].[Dab].T}$PEPTIDE1,PEPTIDE1,5:R3-11:R2$$$V2.0)
A. baumannii AB5075; 8 ug/mL, time 0 h, passage 0, replicates rep1-rep4, raw OD600 (blank OD600 0.125333)
  OD600: 0.207 and 0.177 and 0.165 and 0.164
A. baumannii AB5075; 8 ug/mL, time 12 h, passage 1, replicates rep1-rep4, raw OD600 (blank OD600 0.114667)
  OD600: 0.193 and 0.169 and 0.147 and 0.152
A. baumannii AB5075; 8 ug/mL, time 24 h, passage 2, replicates rep1-rep4, raw OD600 (blank OD600 0.0956667)
  OD600: 0.091 and 0.092 and 0.09
A. baumannii AB5075; 8 ug/mL, time 36 h, passage 3, replicates rep1-rep4, raw OD600 (blank OD600 0.088)
  OD600: 0.091 and 0.09 and 0.092
A. baumannii AB5075; 8 ug/mL, time 48 h, passage 4, replicates rep1-rep4, raw OD600 (blank OD600 0.104667)
  OD600: 0.091 and 0.094 and 0.101
A. baumannii AB5075; 8 ug/mL, time 60 h, passage 5, replicates rep1-rep4, raw OD600 (blank OD600 0.122333)
  OD600: 0.112 and 0.116 and 0.106 and 0.123
A. baumannii AB5075; 8 ug/mL, time 72 h, passage 6, replicates rep1-rep4, raw OD600 (blank OD600 0.095)
  OD600: 0.092 and 0.085 and 0.096
A. baumannii AB5075; 8 ug/mL, time 84 h, passage 7, replicates rep1-rep4, raw OD600 (blank OD600 0.091)
  OD600: 0.089 and 0.091 and 0.092 and 0.093
A. baumannii AB5075; 8 ug/mL, time 96 h, passage 8, replicates rep1-rep4, raw OD600 (blank OD600 0.0953333)
  OD600: 0.09 and 0.092 and 0.097 and 0.093
A. baumannii AB5075; 8 ug/mL, time 108 h, passage 9, replicates rep1-rep4, raw OD600 (blank OD600 0.100667)
  OD600: 0.111 and 0.118 and 0.121 and 0.105
A. baumannii AB5075; 8 ug/mL, time 120 h, passage 10, replicates rep1-rep4, raw OD600 (blank OD600 0.0983333)
  OD600: 0.118 and 0.132 and 0.121 and 0.13
A. baumannii AB5075; 8 ug/mL, time 132 h, passage 11, replicates rep1-rep4, raw OD600 (blank OD600 0.0843333)
  OD600: 0.12 and 0.124 and 0.123 and 0.117
A. baumannii AB5075; 8 ug/mL, time 144 h, passage 12, replicates rep1-rep4, raw OD600 (blank OD600 0.091)
  OD600: 0.126 and 0.122 and 0.125 and 0.13
A. baumannii AB5075; 8 ug/mL, time 156 h, passage 13, replicates rep1-rep4, raw OD600 (blank OD600 0.129)
  OD600: 0.117 and 0.116 and 0.13 and 0.112
A. baumannii AB5075; 8 ug/mL, time 168 h, passage 14, replicates rep1-rep4, raw OD600 (blank OD600 0.101)
  OD600: 0.095 and 0.092
A. baumannii AB5075; 4× MIC, 7-day passaging
  time to emergence of resistance: ≤ 3 days
A. baumannii AB5075; 32× MIC
  growth over 7 days: No growth
A. baumannii AB5075; in vitro passaging, concentration 8 ug/mL, time 168 h, passage 14, individual replicates rep1-rep4, not blank-subtracted (blank OD600 0.101)
  OD600: 0.093 and 0.094
[1]; [6]
  MIC50: 0.5 µg/mL (≈ 0.431 µM)
  MIC90: 1 µg/mL (≈ 0.862 µM)
[1]; MIC50/MIC90, P. aeruginosa panel
  potency relative to polymyxin B: 2 fold
[1]; isolates with MIC 0.05 μg/mL (so in the source)
  Number of isolates: 1
[1]; isolates with MIC 0.125 μg/mL (so in the source)
  Number of isolates: 6
[1]; isolates with MIC 0.25 μg/mL (so in the source)
  Number of isolates: 28
[1]; isolates with MIC 0.5 μg/mL (so in the source)
  Number of isolates: 159
[1]; isolates with MIC 1 μg/mL (so in the source)
  Number of isolates: 13
[1]; isolates with MIC 2 μg/mL (so in the source)
  Number of isolates: 1
[1]; isolates with MIC 4 μg/mL (so in the source)
  Number of isolates: 2
[1]; isolates with MIC 8 μg/mL (so in the source)
  Number of isolates: 0
[1]; isolates with MIC 16 μg/mL (so in the source)
  Number of isolates: 1
[1]; isolates with MIC 32 μg/mL (so in the source)
  Number of isolates: 0
[1]; isolates with MIC 64 μg/mL (so in the source)
  Number of isolates: 0
[1]; isolates with MIC >64 μg/mL (so in the source)
  Number of isolates: 2
P. aeruginosa ATCC 27853; 10% Survanta vs none
  impact of lung surfactant on MIC: not impacted
P. aeruginosa ATCC 27853; ATCC 27853
  MIC P. aeruginosa ATCC 27853: 0.5 µg/mL (≈ 0.431 µM)
  MIC, No Survanta: 0.5 µg/mL (≈ 0.431 µM)
[2]
  MIC P. aeruginosa FADDI-PA025: 0.5 µg/mL (≈ 0.431 µM)
[3]
  MIC P. aeruginosa FADDI-PA038: 0.5 µg/mL (≈ 0.431 µM)
HK-2 cells; Geneid ENSG00000223972
  logFC, differential gene expression for all genes: -0.04793
HK-2 cells; Geneid ENSG00000227232
  logFC, differential gene expression for all genes: -0.06475
HK-2 cells; Geneid ENSG00000233750
  logFC, differential gene expression for all genes: -1.555
HK-2 cells; Geneid ENSG00000278267
  logFC, differential gene expression for all genes: 0.04711
HK-2 cells; gene ENSG00000017483 SLC38A5
  log2FC: -0.03439
HK-2 cells; gene ENSG00000023445 BIRC3
  log2FC: -0.1649
HK-2 cells; gene ENSG00000056558 TRAF1
  log2FC: 0.4036
HK-2 cells; gene ENSG00000066468 FGFR2
  log2FC: -0.6638
HK-2 cells; number of differentially expressed genes per peptide, Fig. 6a
  num.of.degs: 70
In vitro; Rep1
  viability at 24 h: 96.4%
In vitro; Rep2
  viability at 24 h: 95.4%
In vitro; Rep4
  viability at 24 h: 95.1%
wild-type HK-2 cells
  effect on cell viability: no effect on cell viability
[4]; Rep1, replicate 1, read-out: Cell viability, KCNJ16 KO, Rep1
  viability at 24 h: 76%
[4]; Rep2, replicate 2, read-out: Cell viability, KCNJ16 KO, Rep2
  viability at 24 h: 94.1%
[4]; Rep3, replicate 3, read-out: Cell viability, KCNJ16 KO, Rep3
  viability at 24 h: 100%
[4]; Rep4, replicate 4, read-out: Cell viability, KCNJ16 KO, Rep4
  viability at 24 h: 73.7%
[5]
  effect on cell viability: no effect on cell viability

Source: PMC8956739, “A synthetic lipopeptide targeting top-priority multidrug-resistant Gram-negative pathogens” (Nature Communications, 2022)
